{
  "source": "patent US4925844A",
  "about": "“Antagonizing the pharmacological effects of a benzodiazepine receptor agonist” (ICI Americas Inc., priority 1989, dated 1990)",
  "key": {"[1]": {"test_system": "metrazole-induced convulsions", "assay": "Antagonism of metrazole-induced convulsions (anticonvulsant activity)", "assay_type": "in vivo", "details": "substance given alone", "protocol": "Further tests may be conducted to evaluate the agonist/antagonist profile of a compound. […] To determine the antagonist properties of a test compound, subjects are treated with test agent intraperitoneally or orally at selected intervals prior to or following treatment with a benzodiazepine agonist, and are then tested under the appropriate test conditions."}, "rats [2]": {"test_system": "rats", "assay": "Anti-conflict activity / shock-induced suppression of drinking (SSD) test", "assay_type": "in vivo", "details": "for antagonism of the anticonflict or disinhibiting activity (increase in shocks taken) of benzodiazepine agonists: oral or i.p., 0.2 to 50 mg per kg, 30 to 45 minutes before the benzodiazepine agonist; for anticonflict activity (increase in mean number of shocks taken vs vehicle controls): substance given alone", "experimental": "A modification of the method of Vogel and coworkers (1971) is used. […] In this test, benzodiazepine agonists (e.g. chlordiazepoxide) are administered either intraperitoneally (i.p.) or orally (p.o.) at 30 or 60 min., respectively, prior to the initiation of the test. […]\nThe mean number of shocks taken for the groups that received the test agents (benzodiazepine agonists) alone and in the presence of benzodiazepine antagonist are recorded."}, "rats [3]": {"test_system": "rats", "assay": "Neuromuscular impairment / roto-rod test", "details": "for antagonism of diazepam-induced neuromuscular impairment on the roto-rod: oral or intraperitoneal, 30 to 45 minutes before the benzodiazepine agonist; for neuromuscular uncoordination (ataxia) on the roto-rod: benzodiazepine agonist alone", "experimental": "Further tests may be conducted to evaluate the agonist/antagonist profile of a compound. The procedures or methods used to determine anticonflict (shock-induced suppressions of drinking test), antagonism of metrazole-induced convulsions and neuromuscular impairment (roto-rod studies) are published in Eur. J. Pharmacol. 78(3):323-333 (1980) and briefly discussed below. To determine the antagonist properties of a test compound, subjects are treated with test agent intraperitoneally or orally at selected intervals prior to or following treatment with a benzodiazepine agonist, and are then tested under the appropriate test conditions.\nA roto-rod test (Rinnard and Car, J. Pharmacol. and Exp. Therap. 121:354 (1957)) which measures the rat's muscle tone and ability to perform coordinated locomotor tasks may be used to evaluate a test compound's antagonist properties. In the roto-rod test, rats are trained to maintain themselves for at least 1 min on a rotating rod (6 r.p.m.). Subjects are treated with a test compound and are retested for their ability to maintain themselves on the roto-rod at 30 and 60 min. post-drug administration. Subjects that fail to stay on the rod for a one-minute period are considered to be neuromuscularly impaired (ataxia) and the ED50 (that dose which would be expected to produce ataxia in 50% of the rats tested) is calculated. […] The benzodiazepine antagonists may also be administered immediately prior to, or immediately after, the benzodiazepine agonist in this test."}, "benzodiazepine receptors [4]": {"test_system": "benzodiazepine receptors", "assay": "[3H]-flunitrazepam binding test (FNB test)", "details": "at a tested concentration of 500 nanomolar or less; rat cerebral cortex P2 membranes"}, "male Wistar rats": {"test_system": "male Wistar rats", "assay": "Overt toxicity after intraperitoneal dosing", "assay_type": "in vivo", "text": "In general, the compound 4-amino-8-phenyl-N-propyl-3-cinnolinecarboxamide is believed to be able to antagonize the effects of benzodiazepine receptor agonists and will be useful whenever such antagonism is desired."}, "benzodiazepine receptors [5]": {"test_system": "benzodiazepine receptors", "details": "general statement on how activity is indicated in the test; cited from earlier work"}},
  "data": [
    {"smiles": "CCCNC(=O)c1nnc2c(-c3ccccc3)cccc2c1N", "note": "[formula Ia, 4-amino-8-phenyl-N-propyl-3-cinnolinecarboxamide]", "values": [
      {"measurement": "anticonvulsant activity typical of benzodiazepine agonists", "setting": "[1]", "result": "does not exhibit"},
      {"measurement": "antagonism of the anticonflict or disinhibiting activity (increase in shocks taken) of benzodiazepine agonists", "setting": "rats [2]", "result": "antagonized"},
      {"measurement": "mean number of shocks taken (reversal of chlordiazepoxide effect)", "setting": "rats [2]; rats, oral 1.25 mg per kg five minutes prior to 18 mg per kg oral chlordiazepoxide", "result": "did not exhibit a significant increase"},
      {"measurement": "anticonflict activity (increase in mean number of shocks taken vs vehicle controls)", "setting": "rats [2]", "result": "does not exhibit"},
      {"measurement": "antagonism of diazepam-induced neuromuscular impairment on the roto-rod", "setting": "rats [3]", "result": "antagonized"},
      {"measurement": "neuromuscular impairment (reversal of diazepam effect; ability to remain on the roto-rod)", "setting": "rats [3]; rats, intraperitoneal 1.25 mg per kg five minutes after 20 mg per kg intraperitoneal diazepam", "result": "did not exhibit significant neuromuscular impairment"},
      {"measurement": "displacement of specific [3H]-flunitrazepam binding", "setting": "benzodiazepine receptors [4]", "result": "≥ 50", "unit": "%"},
      {"measurement": "toxicological problems", "setting": "male Wistar rats; at several multiples of a therapeutic dose", "result": "has not exhibited toxicological problems"},
      {"measurement": "overt toxic effects", "setting": "male Wistar rats; male Wistar rats, intraperitoneal dose of 50 mg per kg", "result": "no overt toxic effects"}
    ]},
    {"smiles": "CN1C(=O)CN=C(c2ccccc2)c2cc(Cl)ccc21", "note": "[diazepam]", "values": [
      {"measurement": "anticonflict activity (increase in mean number of shocks taken vs vehicle controls)", "setting": "rats [2]", "result": "significant (P<0.05) anticonflict activity"},
      {"measurement": "neuromuscular uncoordination (ataxia) on the roto-rod", "setting": "rats [3]", "result": "produce neuromuscular uncoordination (ataxia) at relatively low doses"}
    ]},
    {"smiles": "CCOC(=O)c1ncn2c1CN(C)C(=O)c1cc(F)ccc1-2", "note": "[ethyl 8-fluoro-5,6-dihydro-5-methyl-6-oxo-4H-imidazo(1,5a)(1,4)benzodiazepine-3-carboxylate]", "values": [
      {"measurement": "antagonism of the anticonflict or disinhibiting activity (increase in shocks taken) of benzodiazepine agonists", "setting": "rats [2]", "result": "antagonized"},
      {"measurement": "antagonism of diazepam-induced neuromuscular impairment on the roto-rod", "setting": "rats [3]", "result": "antagonized"}
    ]},
    {"smiles": "CCCCNc1c(C(=O)OCC)cnc2c1cnn2CC", "note": "[cartazolate]", "values": [
      {"measurement": "effect on flunitrazepam binding (displacement or enhancement)", "setting": "benzodiazepine receptors [5]", "result": "enhancement of the binding"}
    ]},
    {"smiles": "CCCCNc1c(C(=O)OCC)c(C)nc2c1cnn2CC", "note": "[tracazolate]", "values": [
      {"measurement": "effect on flunitrazepam binding (displacement or enhancement)", "setting": "benzodiazepine receptors [5]", "result": "enhancement of the binding"}
    ]},
    {"smiles": "CNC1=Nc2ccc(Cl)cc2C(c2ccccc2)=[N+]([O-])C1", "note": "[chlordiazepoxide]", "values": [
      {"measurement": "mean number of shocks taken as compared to vehicle controls", "setting": "rats [2]; rats, oral dose of 18 mg per kg chlordiazepoxide alone", "result": "significant increases"},
      {"measurement": "anticonflict activity (increase in mean number of shocks taken vs vehicle controls)", "setting": "rats [2]", "result": "significant (P<0.05) anticonflict activity"},
      {"measurement": "neuromuscular uncoordination (ataxia) on the roto-rod", "setting": "rats [3]", "result": "produce neuromuscular uncoordination (ataxia) at relatively low doses"}
    ]}
  ]
}
